Columns and labels:
[1] = tested on: histamine-elicited bronchospasm; assay: Bronchospasmolytic effect (reduction of intratracheal pressure, ITP) in anaesthetized guinea pigs; type: in vivo; conditions: for dose-related inhibition of the histamine-elicited bronchospasm: after injection as well as after inhalation; for reduction of ITP: 3 minutes before histamine infusion
Protocol: (§1) Guinea pigs of either sex were used in the study. The anaesthesia was produced by intravenous pentobarbital, The trachea was cannulated and the animals articificially ventilated by a constant volume respiratory. The intratracheal pressure (ITP) was measured by a pressure transducer. An increase in ITP, above the basic pressure level, indicating a respiratory spasm, was elicited by histamine infused in a jugular vein during 20 sec. every 7 minutes and in amounts producing a peak-ITP in the range 4-6 kPa. To trace cardiovascular effects from used drugs the blood pressure was recorded from a carotide artery via a pressure transducer. The pulse wave, indicating the rate, was triggering a tachograph recording the heart frequency.
(§2) The test compounds were injected 3 minutes before a histamine infusion and the decrease in percent of the intratracheal pressure (ITP) was taken as a measure of the bronchospasmolytic activity. The influence on heart-rate was evaluated after cumultative injections; a new injection was given when the preceding one had produced a steady state in the rate.
(§3) The test compounds were nebulized and the mist produced was led to the animal through the respirator and tracheal cannula. Inhalation continued for 15 mintues for each concentration of the test compounds. The bronchodilating effect […] was calculated as percent reduction in ITP. The effect on heart-rate was determined after a cumultative increase in the concentrations of the nebulized solutions. Effect measurements were made at steady state, and three different concentrations were used.

heart-rate = assay: Heart-stimulating effect (heart-rate) in anaesthetized guinea pigs; type: in vivo
Protocol: as §1, §2, §3

[2] = tested on: dyspnotic breathing in histamine; assay: Duration of bronchodilating activity in conscious guinea pigs challenged with aerosolized histamine after tracheal instillation or inhalation; type: in vivo; conditions: for initial potency compared with salmeterol / initial potency compared with terbutaline: conscious guinea pigs, histamine challenge; for delay (in minutes) in the appearance of dyspnotic breathing in histamine 0.5 h after the administration / delay (in minutes) in the appearance of dyspnotic breathing in histamine 6 h after the administration: given intratracheally
Protocol: Concious guinea pigs were used in the study. The compounds according to Examples 1 and 2, salmeterol and terbutaline, were given by inhalation or by tracheal instillation whereafter the animals were challenged in a histamine mist after different time intervals.
The guinea pigs were placed in plastic boxes and the test compounds delivered by continuous flow nebulization during 15 minutes.
The animals were lightly anaesthetized by inhalation of Efrane. The test compounds were instilled by use of a thin cannula to the tracheal bifurcation. Controlled animals were instilled with saline.
After the administrations, according to one of the mentioned routes, the animals were placed in transparent plastic cages and challenged with aerosolized histamine. The mist was generated in a nebulizer from a solution containing 0.5-1.0x10⁻³ mol/l of histamine in 3% glycerol. This concentration produced a defined dyspnotic breathing, appearing in control animals within 2-3 minutes. This phase was usally indicated by observation, sometimes also a "blinded trial" or recorded by use of a strain-gauge belt (see 0.A.T. Olsson in Acta Allergologica 26, 438, 1971). An increasing amount of spasmolytic drug gives then rise to a dose-dependent prolongation of the ability of the animals to resist this histamine spasm. As soon as a dyspnotic breathing was established the guinea pigs were removed from the histamine milieu since the same animals have to be exposed to histamine not only after 30 minutes but also at 3, 6 and 9 hours after drug administration.
In some of the experiments the animals were challenged with methacholine instead of histamine to exclude the eventuality of an antihistaminic effect of the drugs tested.
The amounts instilled produce about equieffective protection (6 to 7 minutes) against a histamine provocation 30 minutes after the administration of the test compound. The degree of protection 6 hours after the instillation of the test compound indicates the duration of the bronchospasmolytic activity.

[3] = inhalation therapy; cited from earlier work

COc1ccc(CNc2cc([C@@H](O)CN[C@@H](C)Cc3ccc4c(c3)OCO4)ccc2O)cc1 (racemic) [(R,S+S,R)]
dose-related inhibition of the histamine-elicited bronchospasm [1]: inhibition of the histamine-elicited bronchospasm | reduction of ITP ([1]; injection of 5x10⁻⁹ mol/kg): about 50 per cent | effect on heart rate compared with salmeterol (heart-rate; after inhalation): more reduced effect on heart rate | relationship between the effect on the respiratory system and heart, compared with salmeterol (heart-rate; when the drugs are injected): the same | initial potency compared with salmeterol [2]: approximately ten times less than for salmeterol | initial potency compared with terbutaline [2]: about the same as for terbutaline | delay (in minutes) in the appearance of dyspnotic breathing in histamine 0.5 h after the administration ([2]; 1x10⁻⁸ mol/kg): 7 min | delay (in minutes) in the appearance of dyspnotic breathing in histamine 6 h after the administration ([2]; 1x10⁻⁸ mol/kg): 6 min

COc1ccc(CNc2cc([C@@H](O)CN[C@H](C)Cc3ccc4c(c3)OCO4)ccc2O)cc1 [(R,R)]
delay (in minutes) in the appearance of dyspnotic breathing in histamine 0.5 h after the administration ([2]; 5x10⁻⁸ mol/kg): 7 min | delay (in minutes) in the appearance of dyspnotic breathing in histamine 6 h after the administration ([2]; 5x10⁻⁸ mol/kg): 3 min

COc1ccc(CNc2cc(C(O)CNC(C)Cc3ccc4c(c3)OCO4)ccc2O)cc1 [(R,R+S,R)]
delay (in minutes) in the appearance of dyspnotic breathing in histamine 0.5 h after the administration ([2]; 1x10⁻⁷ mol/kg): 7 min | delay (in minutes) in the appearance of dyspnotic breathing in histamine 6 h after the administration ([2]; 1x10⁻⁷ mol/kg): 3 min

COc1ccc(CNc2cc([C@@H](O)CN[C@@H](C)Cc3ccc4c(c3)OCO4)ccc2O)cc1 [(R,S), 1-(R)-(4-hydroxy-3-(p-methoxybenzylamino)phenyl)-2-[(1(S)-methyl-2-(3,4-methylenedioxyphenyl)ethyl)amino]ethanol]
initial potency compared with salmeterol [2]: approximately ten times less than for salmeterol | initial potency compared with terbutaline [2]: about the same as for terbutaline | delay (in minutes) in the appearance of dyspnotic breathing in histamine 0.5 h after the administration ([2]; 5x10⁻⁹ mol/kg): 6 min | delay (in minutes) in the appearance of dyspnotic breathing in histamine 6 h after the administration ([2]; 5x10⁻⁹ mol/kg): 5 min

COc1ccc(CNc2cc(C(O)CNC(C)Cc3ccc4c(c3)OCO4)ccc2O)cc1 [(R,S+S,S)]
delay (in minutes) in the appearance of dyspnotic breathing in histamine 0.5 h after the administration ([2]; 1x10⁻⁸ mol/kg): 6 min | delay (in minutes) in the appearance of dyspnotic breathing in histamine 6 h after the administration ([2]; 1x10⁻⁸ mol/kg): 5 min

CC(C)(C)NCC(O)c1cc(O)cc(O)c1 (centres unmarked) [Terbutaline, terbutaline]
dose-related inhibition of the histamine-elicited bronchospasm [1]: inhibition of the histamine-elicited bronchospasm | reduction of ITP ([1]; injection of 1x10⁻⁸ mol/kg): about 50 per cent | effect on heart-rate relative to salmeterol and the compounds of the invention (heart-rate; guinea pig, in vivo): lies in between | increase of the heart-rate (heart-rate; guinea pig, in vivo, iv): about 30 beats/min | delay (in minutes) in the appearance of dyspnotic breathing in histamine 0.5 h after the administration ([2]; 1x10⁻⁷ mol/kg): 7 min | delay (in minutes) in the appearance of dyspnotic breathing in histamine 6 h after the administration ([2]; 1x10⁻⁷ mol/kg): 2 min | duration of activity [3]: 4 to 6 h

Cc1ccc(C(=O)Oc2ccc(C(O)CNC(C)(C)C)cc2OC(=O)c2ccc(C)cc2)cc1 (centres unmarked) [bitolterol]
duration of activity [3]: 4 to 6 h

CC(Cc1ccc(O)cc1)NCC(O)c1cc(O)cc(O)c1 (centres unmarked) [fenoterol]
duration of activity [3]: 4 to 6 h

CC(C)(C)NCC(O)c1ccc(O)c(CO)c1 (centres unmarked) [salbutamol]
duration of activity [3]: 4 to 6 h

OCc1cc(C(O)CNCCCCCCOCCCCc2ccccc2)ccc1O (centres unmarked) [salmeterol]
dose-related inhibition of the histamine-elicited bronchospasm [1]: inhibition of the histamine-elicited bronchospasm | reduction of ITP ([1]; injection of 5x10⁻¹⁰ mol/kg): about 50 per cent | potency compared with the other two drugs (compound of Example 2, terbutaline) ([1]; when inhaled): about five times | potency compared with the other two drugs (compound of Example 2, terbutaline) ([1]; when injected): at least ten times higher | increase of the heart-rate (heart-rate; guinea pig, in vivo): 15 beats/min | increase of the heart-rate (heart-rate; guinea pig, in vivo, iv): about 30 beats/min | duration of activity compared with terbutaline ([2]; calculated from an equipotent level): prolonged
